Test results from US20020164617A1, “Affinity selection-based screening of hydrophobic proteins” (NeoGenesis Pharmaceuticals, Inc., priority 2000, published 2002).

What was measured:
[1] = biological target: T1, m2 mAChR (Sus scrofa, UniProt P06199); assay: 3H-NMS binding assay by the method of Rinken and Haga; details: m2 mAChR alone, without accessory protein; read-out: apparent Kd
T1 construct: made in house
T1 sequence (P06199 1-466): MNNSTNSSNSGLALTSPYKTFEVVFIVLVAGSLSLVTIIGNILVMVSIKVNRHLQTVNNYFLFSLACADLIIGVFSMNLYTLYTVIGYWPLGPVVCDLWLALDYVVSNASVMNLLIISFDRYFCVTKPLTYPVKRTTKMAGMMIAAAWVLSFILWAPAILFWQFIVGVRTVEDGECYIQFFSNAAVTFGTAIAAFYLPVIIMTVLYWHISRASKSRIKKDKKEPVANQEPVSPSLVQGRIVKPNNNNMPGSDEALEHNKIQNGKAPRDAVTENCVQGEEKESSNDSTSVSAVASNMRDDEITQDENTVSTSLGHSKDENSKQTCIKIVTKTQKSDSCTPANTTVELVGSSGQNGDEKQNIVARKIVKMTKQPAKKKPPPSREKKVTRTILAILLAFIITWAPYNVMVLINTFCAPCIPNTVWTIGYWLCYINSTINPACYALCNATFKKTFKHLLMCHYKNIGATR

[2] = biological target: T2, m2 mAChR-G∀i1∃1(2-GDP complex (Sus scrofa, UniProt P06199)); assay: as above
T2 construct: made in house
T2 sequence (P63096 whole entry partner, one chain of several): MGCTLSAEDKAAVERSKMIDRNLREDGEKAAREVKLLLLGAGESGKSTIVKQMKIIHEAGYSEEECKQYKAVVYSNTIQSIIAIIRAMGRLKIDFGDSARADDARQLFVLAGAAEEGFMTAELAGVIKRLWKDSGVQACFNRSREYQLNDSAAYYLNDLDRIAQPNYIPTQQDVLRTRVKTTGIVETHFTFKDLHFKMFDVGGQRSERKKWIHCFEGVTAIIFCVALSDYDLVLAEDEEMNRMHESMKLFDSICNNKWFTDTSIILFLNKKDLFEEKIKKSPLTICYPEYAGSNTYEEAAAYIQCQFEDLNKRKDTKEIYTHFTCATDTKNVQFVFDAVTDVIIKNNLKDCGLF
T2 sequence (P62873 whole entry partner, one chain of several): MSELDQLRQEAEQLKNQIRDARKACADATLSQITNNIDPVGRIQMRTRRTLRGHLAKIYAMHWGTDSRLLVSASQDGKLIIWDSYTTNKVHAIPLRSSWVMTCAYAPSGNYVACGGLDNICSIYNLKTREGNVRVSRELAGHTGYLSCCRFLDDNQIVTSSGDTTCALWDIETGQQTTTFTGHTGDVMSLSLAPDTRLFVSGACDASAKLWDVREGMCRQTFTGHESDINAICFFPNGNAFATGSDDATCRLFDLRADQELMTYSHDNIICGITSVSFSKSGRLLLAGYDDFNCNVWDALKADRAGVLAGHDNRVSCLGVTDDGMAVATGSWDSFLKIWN
T2 sequence (P59768 2-68 partner limits assumed, one chain of several): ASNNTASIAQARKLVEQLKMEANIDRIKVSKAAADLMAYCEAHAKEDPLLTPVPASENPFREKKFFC

C[N+]1(C)[C@@H]2C[C@@H](OC(=O)[C@H](CO)c3ccccc3)C[C@H]1[C@@H]1O[C@@H]12 [3H-NMS, N-methylscapolamine]
Kd [1]: 0.17 nM
Kd ([2]; m2 mAChR with G protein heterotrimer-GDP as accessory protein): 432 nM
enhancement of affinity of m2 mAChR in presence of accessory protein complex ([2]; with vs without G∀i1∃1(2-GDP complex)): 5 fold
